Measured values as given in patent US9694015B2, “Methods for the treatment of locally advanced breast cancer” (Celgene Corporation, priority 2012, dated 2017).
Where “and” joins values, the source holds several entries; their conditions need not be identical. Identical values can stand only once.

Tests used:
[1] = molecular target: T1, Aiolos (Homo sapiens (Human), UniProt Q9UKT9); assay: Aiolos protein in myeloma cells; type: cell-based
[2] = molecular target: T1, Aiolos; assay: Endogenous Aiolos in breast cancer cells (western blot); type: cell-based
Procedure: Cell lines (AU565, ZR 75-1, BT-474, EFM-192A, HCC1954, HCC70, MB436 and BT549) were maintained using standard cell culture techniques. For endogenous Aiolos expression, cells were seeded in a 6 well plate at 0.5×10^6 cells per well in a 3 mL volume of media. Cells were allowed to adhere to the plate overnight.
(§1) Cells were harvested and lysed in Pierce #89900 Ripa buffer containing 2× protease inhibitor cocktail from Pierce #78442. The lysate was applied to a QiaShredder to remove DNA. Total protein yield was measured using BioRad DC protein determination kit (Cat#500-0112). Lysates were stored at −80° C. until use. Samples were applied to BioRad Criterion PreCast gels, 10% (Bio-Rad#345-0010) and transferred to Bio-Rad Nitrocellulose/Filter Paper Sandwiches (#162-0233) for western blot analysis.

[3] = GLP 28-day toxicity study in rat; type: in vivo
[4] = molecular target: T1, Aiolos; assay: Aiolos expression by western blot at 6 hours; type: cell-based; conditions: western blot at 6 hours after the treatment
[5] = tested on: NFKB; assay: NFKB DNA binding activity in DLBCL cells; type: cell-based
[6] = molecular target: T1, Aiolos; assay: Aiolos expression with and without proteasome inhibitor; type: cell-based
From the text: It appeared that the inhibitory effect correlates with compound's anti-proleferative activity in myeloma cells.

[7] = tested on: HIF1-α; assay: Hypoxia-induced HIF1-α expression in solid tumor cell lines; type: cell-based; conditions: solid tumor cell lines (e.g., breast, ovarian, colorectal, HCC)
[8] = GLP 28-day toxicity study in monkey; type: in vivo
[9] = molecular target: T1, Aiolos; assay: Overexpressed flag-Aiolos-myc fusion protein in AU565 cells (western blot); type: cell-based
Procedure: In some experiments, cell lines were transfected with an Aiolos overexpression vector using Lipofectamine reagent in a batch method. Cells were seeded in a 12 well plate at 1×10^5 cells in a 3 mL volume per well. Where specified, cells were pretreated with MG132 at 10 uM for 1 hour, or DMSO was added as a control.
as §1

[10] = tested on: RANTES; assay: LPS-stimulated hPBMC cytokine/chemokine production: RANTES enhancement; type: cell-based, human
[11] = tested on: U87 (GBM), H929 (MM), WSU-DLCL2 and DOHH2 (NHL) xenografts; assay: Xenografts, single agent; type: in vivo
[12] = tested on: IL-10; assay: LPS-stimulated hPBMC cytokine/chemokine production: IL-10 enhancement; type: cell-based, human
From the text: (§2) Data provided are IC50 (μM) values for the indicated cytokines

[13] = tested on: MCP-1; assay: LPS-stimulated hPBMC cytokine/chemokine production: MCP-1 enhancement; type: cell-based, human
From the text: as §2

[14] = tested on: tumor cells; assay: Direct in vitro activity against tumor cells; type: cell-based
[15] = molecular target: Ikaros (Homo sapiens (Human), UniProt Q13422); assay: Ikaros expression by western blot at 6 hours; type: cell-based; conditions: western blot at 6 hours after the treatment

Compound: Cc1nc2cccc(N)c2c(=O)n1C1CCC(=O)NC1=O (stereo not shown) [Compound A, 3-(5-amino-2-methyl-4-oxo-4H-quinazolin-3-yl)-piperidine-2,6-dione]
- inhibitory effect on Aiolos expression [1]: showed inhibitory effect
- endogenous Aiolos ([2]; Her^2+ cells (AU565, BT-474, EFM-192A and HCC1954)): inhibited
- levels of Aiolos ([2]; ZR 75-1 and AU565 cell lines, 24 hours after the treatment): reduced the levels of Aiolos
- Rat STD10 (severely toxic dose in 10% of the animals), Animal Dose ([3]; 28-day toxicity study, rat): 300 mg mg base/kg/day
- HED (mg/person) from rat STD10 ([3]; 60-kg human body weight): 2900 mg mg base/person
- HED (mg/kg) from rat STD10 ([3]; human equivalent dose): 48 mg mg base/kg
- Starting Dose (mg) from rat STD10 ([3]; safety factor 10): 290 mg mg base
- expression of Aiolos [4]: inhibited
- NFKB DNA binding activity [5]: partially inhibits
- expression of Aiolos ([6]; absence of a proteasome inhibitor, 60, 120, 240, 500 and 100 nM): inhibit the expression of Aiolos
- expression of Aiolos ([6]; proteasome inhibitor present): little inhibition
- HIF1α induction in response to hypoxia [7]: inhibits
- Monkey HNSTD ([8]; 28-day toxicity study, monkey): 6 mg/m^2
- Monkey HNSTD (highest non-severely toxic dose), Animal Dose ([8]; 28-day toxicity study, monkey): 0.5 mg base/kg/day and 0.5 mg mg base/kg/day
- HED (mg/person) from monkey HNSTD ([8]; 60-kg human body weight): 10 mg mg base/person
- HED (mg/kg) from monkey HNSTD ([8]; human equivalent dose): 0.16 mg mg base/kg
- Starting Dose (mg) from monkey HNSTD ([8]; safety factor 6): 1.7 mg mg base
- time at which reduction of overexpressed Aiolos begins to show ([9]; AU565 cells overexpressing flag-Aiolos-myc): about 5 hours
- inhibition of Aiolos with proteasome inhibitor MG-132 ([9]; addition of MG-132): rescued
- RANTES (% of control) [10]: 131 % of control
- single agent activity in xenografts [11]: single agent activity was observed
- IL-10 (% of control) [12]: 480 % of control
- MCP-1 (% of control) [13]: 236 % of control
- direct in vitro activity against tumor cells [14]: limited direct in vitro activity
- expression of Ikaros [15]: inhibited
